The term solubility denotes the dissolved amount per volume that the medium holds.

A short description of data set [1]: Toxicity in mouse assessed as effect on liver at 20 mg/kg by H and E staining based microscopic analysis. To be noted: in vivo. The format is organism-based.
Data set [2] concerns Cell membrane. Kind of data set: Induction of mitochondrial membrane depolarization in human K562 cells assessed as decrease in red fluorescence intensity at incubated for 48 hrs by JC-1 staining based flow cytometry. Particulars: dose 1.5-6 nM. Type of data set: cell membranes.
Data set [3] deals with K562. Put plainly: Induction of ROS generation in human K562 cells incubated for 24 hrs by DCFH-DA staining based assay. Type of data set: functional, cell-based. To be noted: dose 1.5-6 nM.
For data set [4], the system named is H22. Put plainly: Antitumor activity against mouse H22 cells allografted in mouse model assessed as inhibition of tumor volume administered as iv dose for once daily for 3 weeks. The format is functional, organism-based. Particulars: dose 10-20 mg/kg.
In data set [5] the test system is MDA-MB-231. Kind of data set: Inhibition of cell invasion in human MDA-MB-231 cells at 1.5 to 6 nM measured after 48 hrs by crystal violet staining microscopy based transwell assay. The format is functional. Particulars: dose 1.5-6 nM.
In data set [6] the test system is K562. Put plainly: Induction of apoptosis in human K562 cells assessed as increase in bad level at upto 6 nM measured after 48 hrs by Western blot analysis. Type of data set: functional, cell-based. (In western blotting, separated proteins are transferred to a membrane and probed.)
Data set [7] has as its system MDA-MB-231. Put plainly: Inhibition of cell migration in human MDA-MB-231 cells measured after 48 hrs by crystal violet staining microscopy based transwell migration assay. The format is functional. To be noted: dose 1.5-6 nM.
For data set [8], the system named is H22. Put plainly: Antitumor activity against mouse H22 cells allografted in mouse model assessed as inhibition of tumor weight administered as iv dose for once daily for 3 weeks. Type of data set: functional, organism-based. Particulars: dose 10-20 mg/kg.
For data set [9], the system named is HUVEC. Put plainly: Anti-angiogenesis activity in HUVEC cells at 1.5 to 6 nM measured after 24 hrs by wound healing assay. Type of data set: functional, cell-based. To be noted: Homo sapiens, dose 1.5-6 nM.
The subject of data set [10] is K562. Put plainly: Induction of apoptosis in human K562 cells assessed as downregulation of bcl-xl level at upto 6 nM measured after 48 hrs by Western blot analysis. Type of data set: functional, cell-based.
Data set [11] concerns the target Tubulin (Homo sapiens) (UniProt P68371+Q9H4B7+P0DPH7+P68366+Q13509+Q71U36+P04350+Q3ZCM7+P07437+P68363+Q9BQE3+Q6PEY2+Q13885+Q9BVA1+Q9BUF5). Put plainly: Inhibition of tubulin polymerization in human K562 cells assessed as microtubule destruction network at 1.5 to 6 uM incubated for 48 hrs by immunofluorescence staining based inverted microscopic analysis. To be noted: dose 1.5-6 µM. Type of data set: cell-based.

Data set [12] in a line: Aqueous solubility of the compound by HPLC analysis. Particulars: aqueous (not further specified). The format is physicochemical.
Data set [13] can be described thus: Toxicity in mouse assessed as effect on body weight loss at 20 mg/kg, iv administered once daily for 3 weeks. Type of data set: organism-based. Particulars: in vivo, 504 h.
The subject of data set [14] is H22. Put plainly: Antitumor activity against mouse H22 cells allografted in mouse model assessed as decrease in Ki67 positive cells at 20 mg/kg by immunohistochemistry analysis. The format is functional, organism-based.
The subject of data set [15] is K562. Put plainly: Induction of cell cycle arrest in human K562 cells assessed as accumulation of cells at G2/M phase at 6 nM incubated overnight by PI staining based flow cytometry analysis (reference value: 5.57%). The format is functional. A general note: Flow cytometry measures light scatter and fluorescence of single cells or particles in a stream.
Data set [16] relates to K562. Put plainly: Induction of apoptosis in human K562 cells assessed as chromatin aggregation at 1.5 to 6 nM incubated for 24 hrs by Hoechst 33342 staining based fluorescence microscopic analysis. The format is functional, cell-based. Particulars: dose 1.5-6 nM.
The test system of data set [17] is K562. Put plainly: Induction of apoptosis in human K562 cells assessed as nuclear fragmentation at 1.5 to 6 nM incubated for 24 hrs by Hoechst 33342 staining based fluorescence microscopic analysis. Type of data set: functional, cell-based. Particulars: dose 1.5-6 nM.

≈ marks a conversion by molar mass, not a printed value. Calls of active or inactive are those of the source. The calls are words filed in the database; no cut-off is given here.

On to `CCn1ccc2cc(N3CCC(=O)c4c3cc(OC)c(OC)c4OC)ccc21`, for which the Activity result in data set [1] is “Non-Toxic”; in data set [2], “Dose-Dependent Effect”; in data set [3], “Dose-Dependent Effect”; in data set [4] it was “Dose-Dependent Effect”; in data set [8], “Dose-Dependent Effect”; in data set [13] it was “Non-Toxic”. In data set [15], the Activity was found to be 22%. For the same compound, the inhibition result in [5] and in data set [11] was “Active” throughout. The outcome in [6], in [9], in [10], in data set [14], in data set [16] and in data set [17] was Active. The inhibition entry in [7] is “Dose-Dependent Effect”. In addition, the concentration in solution in data set [12] (solubility) was 6.68 µg/mL (≈ 17.6 µM).

The values above are taken from ChEMBL document CHEMBL5634150, “Design, synthesis and biological evaluation of novel dihydroquinolin-4(1H)-one derivatives as novel tubulin polymerization inhibitors” (Eur J Med Chem, 2023).
